What was measured:
[1] = system: rat tail arterial smooth muscle preparation; experiment: Rat tail artery smooth muscle bioassay (relaxation of phenylephrine-preconstricted artery); assay type: cell-based; conditions: for % Maximum Response (relaxation): rat tail artery, pre-constricted, at optimum concentration
Experimental: (A) Arterial Smooth Muscle:
Male albino Wistar rats (200-350 g) were euthanized by asphyxiation followed by cervical dislocation.
The tail artery was prepared as previously described (Hirst et al (1994) Br. J. Radiol. 67, 795-799). Incubation buffer was 95% O2/5% CO2 oxygenated Krebs' solution (NaCl 118 mM, KCl 4.7 mM, NaHCO3 25 mM, NaH2 PO4 1.15 mM, CaCl2 2.5 mM, MgCl2 1.1 mM, glucose 5.6 mM). Constriction or dilation of the arterial smooth muscle preparation was detected by an increase or decrease in pressure generated by water column displacement using pressure transducers connected to a MacLab System (AD Instruments Pty Ltd. Australia). […] Viability was determined using a range of bolus phenylephrine (5 μM-10 μM) exposures and the endothelial layer of the artery was removed by bubbling with oxygen for 10 s. Absence of the endothelial layer was confirmed by the lack of relaxation in response to a 30 min perfusion of acetylcholine (50 μM) after preconstriction with phenylephrine (10 μM).
(§1) For intestinal smooth muscle preparations, one cm thick rings of ileum were carefully placed onto the pins of a MacLab force transducer, one pin acting as a stationary fixed point while the second pin was free, permitting application of tension to the smooth muscle. The muscle rings were gradually exposed to 0.1 g increments in resting tension until the spontaneous contractions originated from a resting tension of 0.5 g. The contracting muscle preparations were allowed to stabilise for 25 min before the application of peptides. After perfusion of arterial preparations with 10 μM phenylephrine to obtain constriction plateaux, relative relaxation was recorded following applications of peptides in the range of 1×10^−5-1×10^−10 M. The intestinal smooth muscle ring preparations were exposed to peptide doses as above and relative changes in tension were recorded.

HMEC-1 [2] = experiment: In vitro endothelial cell angiogenic tubule formation assay (Matrigel); assay type: cell-based, human
Experimental: FIG. 3 illustrates the effect of the QUB 698.8 peptide on the ability of HMEC-1 to form tubules on matrigel matrices.
(§2) • 1. […] Selective arterial smooth muscle dilators often have pro-angiogenic properties so QUB 698.8 was subjected to a range of appropriate bioassays to determine spectra of activity. • 4. In the human microvessel endothelial cell wound scrape assay, cells are grown on a glass slide to confluence, a standard-sized wound is made with a pipette tip and time taken to repair tear is measured. QUB 698.8 promoted wound closure 42% faster than non-treated controls at an optimum effective concentration of 10 nanomolar (Table 1—panel B and FIGS. 2a and b). • 5. Using an in vitro endothelial cell angiogenic tubule formation assay (Matrigel) QUB 698.8 induced 75% more tubules than time-matched controls at an optimum concentration of 1 nanomolar (Table 1—panel B and FIG. 3). • 6. […] (Table 1—panel B and FIG. 4). This may be indicative of a rapid role in cell cycle synchronization.

[3] = system: Human Microvascular Endothelial Cells (HMEC-1); experiment: Human microvessel endothelial cell wound scrape (migration) assay; assay type: cell-based
Experimental: as §2

[4] = system: rat ileal smooth muscle ring preparation; experiment: Rat ileum smooth muscle ring bioassay (constriction of spontaneously contracting ileum); assay type: cell-based; conditions: for % Maximum Response (constriction): spontaneously contracting rat ileum, at optimum concentration
From the text: (B) Small Intestinal Smooth Muscle:
as §1

HMEC-1 [5] = experiment: Endothelial cell proliferation assay (MTT); assay type: cell-based, human
Experimental: FIG. 4 illustrates the effect of the QUB 698.8 peptide on the proliferation of HMEC-1 over 72 hours compared to a non-treatment control.
as §2

[6] = migration wound scrape, T = 7 dose response

DLPKIN [QUB 698.8, Asp-Leu-Pro-Lys-Ile-Asn]
Response of rat tail arterial smooth muscle preparation [1]: dose-dependent relaxation
Optimum concentration for maximal effect, arterial compared to ileal smooth muscle ([1]; arterial vs ileal smooth muscle): two orders of magnitude lower
EC50 ([1]; rat tail artery relaxation): 7 nM
Optimum Concentration ([1]; rat tail artery relaxation): 10^−7 M
Potency relative to bradykinin ([1]; rat tail artery relaxation): almost equipotent with bradykinin
Potency relative to maximakinin ([1]; rat tail artery relaxation): more potent than maximakinin
% Maximum Response (relaxation) [1]: 25% relaxation
Peptide effect (HMEC-1 [2]; stimulator of endothelial tubule formation): Potent
EC50 (HMEC-1 [2]; tubule formation): 0.0526 nM
Optimum Concentration (HMEC-1 [2]; tubule formation): 10^−9 M
Optimum concentration (HMEC-1 [2]; tubule formation): 1 nM
Time to 50% wound closure ([3]; migration wound scrape, Other information): T = 3 hrs
EC50 [3, 6]: 0.339 nM
Optimum Concentration [3, 6]: 10^−8 M
Peptide effect ([3]; migration wound scrape, T = 7 dose response: promoter of wound closure): Potent
Optimum effective concentration ([3]; wound closure): 10 nM
Optimum Concentration ([3]; wound scrape total time to closure): 10^−8 M
Time to complete wound closure ([3]; wound scrape total time to closure, 10^−8 M): 16 h
Peptide effect ([3]; wound scrape total time to closure: stimulator of initial endothelial migration): Potent
Response of rat ileal smooth muscle ring preparation [4]: dose-dependent constriction
EC50 ([4]; rat ileum constriction): 1440 nM
Optimum Concentration ([4]; rat ileum constriction): 10^−5 M
Potency relative to bradykinin and maximakinin ([4]; rat ileum constriction): less potent than both bradykinin and maximakinin
% Maximum Response (constriction) [4]: 52% Constriction
Endothelial cell number compared to non-treated controls after 48 h (HMEC-1 [5]; after 48 h): no significant differences
Other information: proliferation after 24 hrs (HMEC-1 [5]; beyond 24 hrs): No further
EC50 (HMEC-1 [5]; proliferation): 0.0659 nM
Optimum Concentration (HMEC-1 [5]; proliferation): 10^−8 M
Peptide effect (HMEC-1 [5]; stimulator of endothelial cell proliferation): Potent

DLPKINRKGPRPPGFSPFR [Mx, Asp-Leu-Pro-Lys-Ile-Asn-Arg-Lys-Gly-Pro-Arg-Pro-Pro-Gly-Phe-Ser-Pro-Phe-Arg, reference compound]
EC50 ([1]; rat tail artery relaxation): 6.18 nM
Optimum Concentration ([1]; rat tail artery relaxation): 10^−7 M
% Maximum Response (relaxation) [1]: 30% relaxation
EC50 ([4]; rat ileum constriction): 534 nM
Optimum Concentration ([4]; rat ileum constriction): 10^−6 M
% Maximum Response (constriction) [4]: 52% Constriction

From US8614187B2, “Peptides, compositions and uses thereof” (The Queen's University of Belfast, priority 2007, dated 2013)
